Test results: patent US6552176B2, “Salt forms of 6-n-butylamino-6-deoxy-α-L-sorbofuranose” (G. D. Searle & Co., priority 1990, dated 2003)

How the values were obtained:
[1] = Autoclaving of N-butylglucamine reaction solution, HPLC comparison before and after; format: physicochemical; settings: 5% (weight/volume) solution, 20 mM MgSO4, pH 5.0; 121° C., 30 P.S.I., 30 minutes
Procedure: The reaction solution can also be sterilized by autoclaving, as described below. A 5% (weight/volume) solution of N-butylglucamine containing 20 mM MgSO4, at pH 5.0, was autoclaved in a 500 ml shake flask with a silicon closure in place. The conditions for autoclaving were 121° C., 30 P.S.I., for 30 minutes. The pH was checked afterwards and found to be 5.0 at room temperature. There was no visible change in the color or the clarity of the solution, an indication that no caramelization or precipitation had occurred. […] Controls (not autoclaved) indicated at least 90% conversion at 48 hours, also. Autoclaving can therefore be used as a method for sterilizing the reaction solution.

[2] = cited from earlier work

Compound	stability of solution to autoclaving (HPLC before vs after) [1]	exposure concentration producing nose and throat irritation ([2]; exposure to as little as)	hazard description per Material Safety Data Sheets ([2]; supplier MSDS (Fisher Scientific))
CCCCNC[C@H](O)[C@@H](O)[C@H](O)[C@H](O)CO [N-butylglucamine]	the same	–	–
CCCCN [N-n-butylamine]	–	5-10 ppm	toxic and a severe eye, skin and mucous membrane irritant
